The test system of this assay is donor-type and host-type T, B and myeloid cells. Put plainly: Mixed chimerism status by flow cytometry. The conditions noted are these: PB and SPL of Foxp3DTR MCs. For orientation: A flow cytometer gives signals particle by particle.

For the substance diphtheria toxin [DT], the “MC status before and after treatment” value is “did not have significant impact”.
